Assay results taken from ChEMBL document CHEMBL5029143, “Discovery of New Potent Positive Allosteric Modulators of Dopamine D2 Receptors: Insights into the Bioisosteric Replacement of Proline to 3-Furoic Acid in the Melanostatin Neuropeptide” (J Med Chem, 2021).
Residues, ends and D or L forms follow the SMILES beside them.

Tests used:
[1] = molecular target: D(2) dopamine receptor (Homo sapiens) (UniProt P14416); settings: CHO, filed as positive allosteric modulator, dose 0.01 nM, time 10.0 min
D(2) dopamine receptor (Homo sapiens), sequence (P14416 whole entry): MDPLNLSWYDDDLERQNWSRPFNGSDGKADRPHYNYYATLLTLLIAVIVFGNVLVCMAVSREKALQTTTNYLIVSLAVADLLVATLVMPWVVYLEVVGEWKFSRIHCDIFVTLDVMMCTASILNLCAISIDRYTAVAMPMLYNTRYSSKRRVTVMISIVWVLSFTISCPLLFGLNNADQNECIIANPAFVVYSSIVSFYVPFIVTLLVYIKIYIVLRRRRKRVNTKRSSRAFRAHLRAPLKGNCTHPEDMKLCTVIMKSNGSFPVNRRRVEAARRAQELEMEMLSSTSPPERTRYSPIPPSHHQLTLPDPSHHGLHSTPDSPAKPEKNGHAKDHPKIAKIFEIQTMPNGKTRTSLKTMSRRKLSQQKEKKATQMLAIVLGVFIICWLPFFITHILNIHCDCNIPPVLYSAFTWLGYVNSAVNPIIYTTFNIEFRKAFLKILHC

[2] = Neurotoxicity in human SH-SY5Y cells assessed as reduction in cell viability at 100 uM measured after 48 hrs by MTT reduction assay (Rvb= 100 +/- 2.79%); type: cell-based; settings: read-out: Activity
[3] = Neurotoxicity in human SH-SY5Y cells assessed as reduction in cell viability at 200 uM measured after 48 hrs by MTT reduction assay (Rvb= 100 +/- 2.79%); type: cell-based; settings: read-out: Activity
SH-SY5Y = assay: Cytotoxicity against human differentiated SH-SY5Y cells assessed as reduction in cell viability at 100 uM measured after 48 hrs by phase contrast microscopic analysis; type: cell-based

Emax [1]	SMILES	viability at 48 h, 100 µM [2]	viability at 48 h, 200 µM [3]	Activity (SH-SY5Y)
93.6%	CC(C)C[C@H](NC(=O)[C@@H]1CCCN1)C(=O)NCC(N)=O (H-Pro-Leu-Gly-NH2)	–	–	–
–	NCCc1ccc(O)c(O)c1 [DOPAMINE]	96.9%	66.4%	–
–	NCCc1cc(O)c(O)cc1O [OXIDOPAMINE]	48.6%	4.06%	Toxic
–	CC(C)C[C@H](NC(=O)c1ccoc1)C(=O)NCC(N)=O	–	86%	–
